# pIC50: −log10 of the molar value. Activity calls are given as the source filed them. The rule behind the calls is not given here.
# Key:
# [1] = Inhibition of BCR-ABL F317L mutant (unknown origin) expressed in mouse BaF3 cells assessed as inhibition of cell growth incubated for 72 hrs by […] CellTiter96 viability analysis
# BaF3 [2] = experiment: Induction of apoptosis in mouse BaF3 cells expressing Bcr-Abl M244V mutant at 30 to 300 nM incubated for 72 hrs by Annexin V-phycoerythrin and 7-amino-actinomycin D staining based PCA instrument analysis; type: functional, cell-based; details: dose 30-300 nM
# BaF3 [3] = experiment: Induction of apoptosis in mouse BaF3 cells expressing Bcr-Abl E255V mutant at 30 to 300 nM incubated for 72 hrs by Annexin V-phycoerythrin and 7-amino-actinomycin D staining based PCA instrument analysis; type: functional, cell-based; details: dose 30-300 nM
# BaF3 [4] = experiment: Induction of apoptosis in mouse BaF3 cells expressing Bcr-Abl Y253H mutant assessed as increase in apoptotic cells at 1500 nM incubated for 72 hrs by Annexin V-phycoerythrin and 7-amino-actinomycin D staining based PCA instrument analysis relative to control; type: functional
compound,measurement,setting,value
Cc1cn(-c2cc(NC(=O)c3ccc(C)c(Nc4nccc(-c5cccnc5)n4)c3)cc(C(F)(F)F)c2)cn1 [NILOTINIB],pIC50,"[1]; BaF3, 72 h",7.30
same,IC90,"[1]; BaF3, time 72 hrs, condition chronic myelogenous leukemia",116 nM
same,Activity,BaF3 [2],Active
same,Activity,BaF3 [3],Active
same,Activity,BaF3 [4],65%
